Reference: PMC10035947, “Development of novel anilinoquinazoline-based carboxylic acids as non-classical carbonic anhydrase IX and XII inhibitors” (Journal of Enzyme Inhibition and Medicinal Chemistry, 2023)
pKi: −log10 of the molar value. Where two headings read alike, the source gives them in different places.

Key:
hCA I = biological target: T1, hCA I (Homo sapiens, UniProt P00915); experiment: stopped flow CO2 hydrase assay; format: biochemical; conditions: mean from 3 assays
T1 construct: made in house
Protocol: (§1) Carbonic anhydrase inhibition assay
(§2) The carbonic anhydrase catalyzed CO2 hydration actions for the quinazoline-based […]
(§3) Photophysics stopped-flow, as described previously. The enzymes are recombinant proteins prepared in our lab. Phenol red (at a concentration of 0.2 mM) has been used as indicator, working at the absorbance maximum of 557 nm, with 20 mM Hepes (pH 7.5) as buffer, and 20 mM Na2SO4 (for maintaining constant the ionic strength), following the initial rates of the CA- […]
(§4) 1.7 to 17 mM for the determination of the kinetic parameters and inhibition constants. For each […]
(§5) initial velocity. The uncatalyzed rates were determined in the same manner and subtracted from the total observed rates. Stock solutions of inhibitor (0.1 mM) were prepared in distilled-deionized water and dilutions up to 0.01 nM were done thereafter with the assay buffer. Inhibitor and enzyme solutions were preincubated together for 15 min at room temperature prior to assay, in order to allow for the formation of the E-I complex. The inhibition constants were obtained by non-linear least-squares methods using PRISM 3 and the Cheng-Prusoff equation, and represent the mean from at least three different determinations.

hCA IX = biological target: T2, hCA IX (Homo sapiens, UniProt Q16790); experiment: stopped flow CO2 hydrase assay; format: biochemical
T2 construct: made in house
Protocol: as §1, §2, §3, §4, §5

hCA XII = biological target: T3, hCA XII (Homo sapiens, UniProt O43570); experiment: stopped flow CO2 hydrase assay; format: biochemical
T3 construct: made in house
Protocol: as §1, §2, §3, §4, §5

MOLT-4 = experiment: NCI SRB assay; format: cell-based, human; conditions: for CC50: read-out: LC50 (the source's name)
RPMI-8226 = experiment: NCI SRB assay; format: cell-based, human; conditions: for CC50: read-out: LC50 (the source's name)
NCI-H226 = experiment: NCI SRB assay; format: cell-based, human
COLO 205 = experiment: NCI SRB assay; format: cell-based, human
HCC-2998 = experiment: NCI SRB assay; format: cell-based, human; conditions: for CC50: read-out: LC50 (the source's name)
KM12 = experiment: NCI SRB assay; format: cell-based, human
SW-620 = experiment: NCI SRB assay; format: cell-based, human
SF-539 = experiment: NCI SRB assay; format: cell-based, human
U251 = experiment: NCI SRB assay; format: cell-based, human; conditions: for CC50: read-out: LC50 (the source's name)
MALME-3M = experiment: NCI SRB assay; format: cell-based, human; conditions: for CC50: read-out: LC50 (the source's name)
MDA-MB-435 = experiment: NCI SRB assay; format: cell-based; conditions: for CC50: read-out: LC50 (the source's name)
SK-MEL-28 = experiment: NCI SRB assay; format: cell-based, human
[1] = Homo sapiens, RPMI-8226, RPMI-8226, 5-dose
[2] = Homo sapiens, KM12, KM 12, 5-dose
[3] = Homo sapiens, U-251, U251, 5-dose

T3 sequence (O43570 25-354): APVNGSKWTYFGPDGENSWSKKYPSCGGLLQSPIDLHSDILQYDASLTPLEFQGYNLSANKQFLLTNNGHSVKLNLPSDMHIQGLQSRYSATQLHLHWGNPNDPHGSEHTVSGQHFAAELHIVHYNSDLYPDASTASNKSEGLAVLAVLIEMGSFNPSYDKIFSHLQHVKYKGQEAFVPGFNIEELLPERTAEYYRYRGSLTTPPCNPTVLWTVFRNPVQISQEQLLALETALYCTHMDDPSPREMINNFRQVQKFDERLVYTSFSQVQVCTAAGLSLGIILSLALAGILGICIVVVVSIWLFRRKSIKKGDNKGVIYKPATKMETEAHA
T1 sequence (P00915 whole entry): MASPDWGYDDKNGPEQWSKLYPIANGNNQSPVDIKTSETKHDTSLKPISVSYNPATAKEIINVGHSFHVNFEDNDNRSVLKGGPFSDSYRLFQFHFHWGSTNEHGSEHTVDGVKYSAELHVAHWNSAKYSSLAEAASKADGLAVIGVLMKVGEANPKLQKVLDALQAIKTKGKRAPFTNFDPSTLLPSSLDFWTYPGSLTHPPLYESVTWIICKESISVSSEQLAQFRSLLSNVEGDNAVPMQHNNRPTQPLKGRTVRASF

Cc1ccc(-c2nc(Nc3ccccc3C(=O)O)c3ccccc3n2)cc1 [6b, 2-((2-(p-Tolyl)quinazolin-4-yl)amino)benzoic acid]
pKi (hCA I): < 4.00 | Selectivity ratio II/IX (hCA IX; KI hCA II / KI hCA IX): 1.40 | pKi (hCA IX; mean from 3 assays): 4.46 | Selectivity ratio I/XII (hCA XII; KI hCA I / KI hCA XII): 14.1 | Selectivity ratio II/XII (hCA XII; KI hCA II / KI hCA XII): 6.79 | pKi (hCA XII; mean from 3 assays): 5.15 | CC50 (MOLT-4; Homo sapiens, MOLT-4, MOLT-4, 5-dose): > 100 µM | GI50 (MOLT-4; Homo sapiens, MOLT-4, 5-dose): 11.7 µM | GI% (MOLT-4; MOLT-4, 10 μM): 89% | Growth Percent (MOLT-4; MOLT-4, 1.00E-5 Molar): 10.91% | TGI (MOLT-4; MOLT-4, 5-dose): <100 µM | TGI (MOLT-4; MOLT-4, 5-dose, listed as D - 835857): > 1.00E-4 Molar | CC50 (MOLT-4; MOLT-4, 5-dose): < 100 µM | GI50 (RPMI-8226; [1]): 4.44 µM | CC50 (RPMI-8226; [1]): > 100 µM | GI% (RPMI-8226; RPMI-8226, 10 μM): 83% | Growth Percent (RPMI-8226; RPMI-8226, 1.00E-5 Molar): 17.08% | GI50 (RPMI-8226; RPMI-8226, 5-dose): 4.4 µM | TGI (RPMI-8226; RPMI-8226, 5-dose): <100 µM | TGI (RPMI-8226; RPMI-8226, 5-dose, listed as D - 835857): > 1.00E-4 Molar | CC50 (RPMI-8226; RPMI-8226, 5-dose): < 100 µM | LC50 (NCI-H226; Homo sapiens, NCI-H226, NCI-H226, 5-dose): > 100 µM | GI50 (NCI-H226; Homo sapiens, NCI-H226, 5-dose): 10.2 µM | GI% (NCI-H226; NCI-H226, 10 μM): 85% | Growth Percent (NCI-H226; NCI-H226, 1.00E-5 Molar): 15.34% | LC50 (NCI-H226; NCI-H226, 5-dose): < 100 µM | TGI (NCI-H226; NCI-H226, 5-dose): 54.2 µM | TGI (NCI-H226; NCI-H226, 5-dose, listed as D - 835857): 5.42E-5 Molar | GI% (COLO 205; COLO 205, 10 μM): – (Only GI% higher than 20% are shown) | Growth Percent (COLO 205; COLO 205, 1.00E-5 Molar): 80.94% | TGI (COLO 205; COLO 205, 5-dose): 41.0 µM | TGI (COLO 205; COLO 205, 5-dose, listed as D - 835857): 4.10E-5 Molar | GI50 (COLO 205; Homo sapiens, COLO 205, 5-dose): 17.8 µM | LC50 (concentration killing 50% of cells) (COLO 205; Homo sapiens, COLO 205, 5-dose): 94.1 µM | GI% (HCC-2998; HCC-2998, 10 μM): 95% | Growth Percent (HCC-2998; HCC-2998, 1.00E-5 Molar): 5.44% | TGI (HCC-2998; HCC-2998, 5-dose): 36.0 µM | TGI (HCC-2998; HCC-2998, 5-dose, listed as D - 835857): 3.60E-5 Molar | CC50 (HCC-2998; HCC-2998, 5-dose): < 100 µM | CC50 (HCC-2998; Homo sapiens, HCC 2998, HCC-2998, 5-dose): > 100 µM | GI50 (HCC-2998; Homo sapiens, HCC-2998, 5-dose): 12.4 µM | LC50 (KM12; [2]): < 100 µM | LC50 (KM12; Homo sapiens, KM12, KM12, 5-dose): > 100 µM | GI50 (KM12; [2]): 13.7 µM | GI% (KM12; KM12, 10 μM): 92% | Growth Percent (KM12; KM12, 1.00E-5 Molar): 8.37% | TGI (KM12; KM 12, 5-dose): 81.2 µM | TGI (KM12; KM12, 5-dose): 8.12E-5 Molar | LC50 (SW-620; Homo sapiens, SW-620, SW-620, 5-dose): > 100 µM | GI50 (SW-620; Homo sapiens, SW-620, 5-dose): 18.2 µM | GI% (SW-620; SW-620, 10 μM): 86% | Growth Percent (SW-620; SW-620, 1.00E-5 Molar): 14.46% | LC50 (SW-620; SW-620, 5-dose): < 100 µM | TGI (SW-620; SW-620, 5-dose): <100 µM | TGI (SW-620; SW-620, 5-dose, listed as D - 835857): > 1.00E-4 Molar | GI50 (SF-539; Homo sapiens, SF-539, 5-dose): 11.9 µM | CC50 (SF-539; Homo sapiens, SF-539, 5-dose, read-out: LC50 (the source's name)): 67.2 µM | GI% (SF-539; SF-539, 10 μM): 79% | Growth Percent (SF-539; SF-539, 1.00E-5 Molar): 21.26% | TGI (SF-539; SF-539, 5-dose): 28.3 µM | TGI (SF-539; SF-539, 5-dose, listed as D - 835857): 2.83E-5 Molar | GI50 (U251; [3]): 5.58 µM | CC50 (U251; [3]): > 100 µM | GI% (U251; U251, 10 μM): 82% | Growth Percent (U251; U251, 1.00E-5 Molar): 18.45% | GI50 (U251; U251, 5-dose): 5.6 µM | TGI (U251; U251, 5-dose): 35.0 µM | TGI (U251; U251, 5-dose, listed as D - 835857): 3.50E-5 Molar | CC50 (U251; U251, 5-dose): < 100 µM | GI% (MALME-3M; 10 μM): 80% | Growth Percent (MALME-3M; 1.00E-5 Molar): 19.56% | TGI (MALME-3M; 5-dose): 64.5 µM | TGI (MALME-3M; 5-dose, listed as D - 835857): 6.45E-5 Molar | CC50 (MALME-3M; 5-dose): < 100 µM | GI50 (MALME-3M; Homo sapiens, 5-dose): 15.6 µM | CC50 (MALME-3M; Homo sapiens, Malme-3M, 5-dose): > 100 µM | GI50 (MDA-MB-435; Homo sapiens, MDA-MB-435): 13.9 µM | CC50 (MDA-MB-435; Homo sapiens, MDA-MB-435, MDA-MB-435, 5-dose): > 100 µM | GI% (MDA-MB-435; MDA-MB-435, 10 μM): 77% | Growth Percent (MDA-MB-435; MDA-MB-435, 1.00E-5 Molar): 23.38% | TGI (MDA-MB-435; MDA-MB-435, 5-dose): 87.2 µM | TGI (MDA-MB-435; MDA-MB-435, 5-dose, listed as D - 835857): 8.72E-5 Molar | CC50 (MDA-MB-435; MDA-MB-435, 5-dose): < 100 µM | CC50 (SK-MEL-28; Homo sapiens, SK-MEL-28, SK-MEL-28, 5-dose, read-out: LC50 (the source's name)): > 100 µM | GI50 (SK-MEL-28; Homo sapiens, SK-MEL-28, 5-dose): 15.9 µM | GI% (SK-MEL-28; SK-MEL-28, 10 μM): 71%
